According to PMC7504435, “Combined Protein- and Ligand-Observed NMR Workflow to Screen Fragment Cocktails against Multiple Proteins: A Case Study Using Bromodomains” (Molecules, 2020):
pKd: −log10 of the molar value. Values joined by “and” are separate entries in the source; they are usually repeats but may differ in a detail not shown here. Equal values may be shown once.

Assays:
PfGCN5 bromodomain [1] = molecular target: T1, PfGCN5 bromodomain (Plasmodium falciparum, UniProt Q8IB67); assay: biochemical; assay type: binding
T1 sequence (Q8IB67 entry or part of it): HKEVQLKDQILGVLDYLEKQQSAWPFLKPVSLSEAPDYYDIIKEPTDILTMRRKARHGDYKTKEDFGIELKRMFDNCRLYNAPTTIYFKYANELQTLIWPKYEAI
Experimental: The screening workflow consists of two dependent steps: 1) a PrOF NMR screen of the 5FW-labeled proteins and a cocktail of 4–5 fragments in a single NMR tube; 2) a ^1H CPMG NMR binding assay to deconvolute the hit mixtures for each protein (Figure 1). In the first step, a dual-protein PrOF NMR spectrum was obtained in which 5FW-PfGCN5, 5FW-BPTF (~ 50 µM each) and mixtures of fragments (400 µM individual fragment) were present in the same NMR tube. […] Chemical shift perturbations indicating a ligand binding event were based on a prior cutoff of Δδ ≥ 0.030 ppm as the definition for a hit mixture. This cutoff was based on a statistical analysis of chemical shift perturbations from a prior BRD4 D1 fragment screen and are described further in the experimental section and in Table S2.
PrOF NMR. PrOF NMR spectra were obtained on a Bruker Avance III HD 500 with the 5 mm Prodigy TCI inverse cryoprobe (^19F S:N 2000:1). […] The DMSO concentration for all experiments was kept constant at 1%. […] For the PrOF NMR screen, 5FW-BPTF and 5FW-PfGCN5 (35–40 µM in 50 mM phosphate, 100 mM NaCl, pH 7.4) were tested with mixtures of 4–5 fragments, where each individual fragment was 400 µM. […] A 10 Hz line broadening was applied. Titrations were fit to Equation (2), where p is the protein concentration and L is the ligand concentration. (2) Δδ=Δδmax × (Kd+P+L ) − (((Kd + P + L )^2) − 4PL)/2P
A PrOF NMR binding event is characterized as a change in chemical shift (Δδ) from the protein-only spectrum to the protein + fragment mixture spectrum. We used a prior cutoff of Δδ ≥ 0.030 ppm as the definition of a hit mixture, based on a statistical analysis of chemical shift perturbations from a prior BRD4 D1 fragment screen.

PfGCN5 bromodomain [2] = molecular target: T1, PfGCN5 bromodomain; assay: Competition 1H CPMG NMR with PfGCN5; assay type: binding
Description: The competition ^1H CPMG NMR and PrOF NMR assays were employed to further probe the binding mode of 9 to PfGCN5. […] At high concentrations, at or above the protein concentration, the competition maxed out at ~ 50% (Figure 2, Figure S10, Table S5). Conversely, TP-238 was able to compete 9 off from BPTF at low concentrations.
(§1) ^1H CPMG NMR. ^1H CPMG NMR screen data were acquired on Bruker Avance III HD 500 with the 5 mm Prodigy TCI cryoprobe inverse cryoprobe (^1H 2500:1 S/N). Competition ^1H CPMG NMR data were acquired on Bruker 700 MHz Avance with a CryoProbe 5 mm TXI (^1H S:N with H2O suppression (2mM sucrose) - 900:1) and excitation sculpting water suppression. Proteins were present at 10 µM in 50 mM phosphate, 100 mM NaCl, pH 7.4 in 100% D2O. In separate NMR tubes, a ^1H CPMG NMR pulse was applied to a 1) mixture of ligands (individual ligands present at 100 µM for the screen and 50 µM for competition experiments) and 2) ligands + protein. For competition experiments, the ligands were used individually, and the competitor ligands were spiked into tube 2. ^1H CPMG NMR parameters for the screen: NS = 128, acquisition time = 2 s, τ = 2.5 ms, and L = 120. For the competition experiments, τ was increased to 4.0 ms.

BPTF bromodomain [3] = molecular target: T2, BPTF bromodomain (Homo sapiens, UniProt Q12830); set-up: against the bromodomains of BPTF and Plasmodium falciparum GCN5 (PfGCN5); his6; made in house; settings: cited from earlier work
BPTF bromodomain [4] = molecular target: T2, BPTF bromodomain; assay: 1H CPMG NMR deconvolution of hit mixtures, BPTF; assay type: binding; set-up: deconvolution of the hit mixtures using the non-fluorine-labeled bromodomains; made in house; host or cells: E. coli BL21(DE3); settings: 10 µM protein, 100 µM ligand
Experimental: The second step is a ^1H CPMG NMR deconvolution of the hit mixtures using the non-fluorine-labeled bromodomains. ^1H CPMG NMR employs a T2 filter to take advantage of the difference in transverse relaxation time between protein and small molecules to filter out the bound-state ligand(s). Unlike the PrOF NMR assay, a single protein is assayed in each experiment. A binding event is characterized by a decrease in ligand resonance intensity from the ligand alone spectrum to the ligand + protein spectrum. A hit is defined as a decrease in resonance intensity ≥ 20%. The ^1H CPMG NMR assay can be tuned by changing the protein or ligand concentration, filter length (Figure 1), or hit criteria depending on how stringent the desired hit rate is. The number of ^1H CPMG NMR deconvolution experiments is directly informed from the first step. If a mixture from the first step was only a hit for one protein, a single ^1H CPMG NMR deconvolution experiment is needed. If a mixture from the first step was a hit for both proteins, two separate ^1H CPMG NMR deconvolutions experiments are needed to determine the fragments that bind to each protein.
as §1, with “For competition experiments, the ligands were used individually, and the competitor ligands were spiked into tube 2. ^1H CPMG NMR parameters for the screen: NS = 128, acquisition time = 2 s, τ = 2.5 ms, and L = 120.” left out

BPTF bromodomain [5] = molecular target: T2, BPTF bromodomain; assay: Competition 1H CPMG NMR with BPTF; assay type: binding; set-up: deconvolution of the hit mixtures using the non-fluorine-labeled bromodomains; made in house; host or cells: E. coli BL21(DE3)
Experimental: The competition ^1H CPMG NMR and PrOF NMR assays were employed to further probe the binding mode of 9 to PfGCN5.
as §1, with “For competition experiments, the ligands were used individually, and the competitor ligands were spiked into tube 2. ^1H CPMG NMR parameters for the screen: NS = 128, acquisition time = 2 s, τ = 2.5 ms, and L = 120.” left out

For `Nc1ccc2c(c1)N(C(=O)C1CC1)CCC2` [Fragment 9], the “ligand efficiency (LE)” value (PfGCN5 bromodomain [1]; PfGCN5, from Kd = 16 µM) was 0.43, the pKd (PfGCN5 bromodomain [1]; PfGCN5 Kd, PrOF NMR titration, for 9 average of W1454 and W1379, NS = non-saturating) was 4.77 and 4.80 and the “Initial Mixture PfGCN5 PrOF NMR Δδ” value (PfGCN5 bromodomain [1]; hit mixture containing the fragment, 400 µM each fragment) was “++++ (++++ = Δδ > 0.2)”. The “selectivity, binds PfGCN5 over BPTF” value (PfGCN5 bromodomain [1]; ratio of Kd values) was 9 fold, the “% drop PfGCN5” value (PfGCN5 bromodomain [2]; resonance of 9 at 2.6884 ppm, GSK series) was 72% and the “% drop PfGCN5” value (PfGCN5 bromodomain [2]; resonance of 9 at 2.6884 ppm, L-Moses series) was 83%. For the same compound, the “% drop PfGCN5” value (PfGCN5 bromodomain [2]; resonance of 9 at 6.98 ppm, GSK series) was 71%, the “% drop PfGCN5” value (PfGCN5 bromodomain [2]; resonance of 9 at 6.98 ppm, L-Moses series) was 75% and the “single-point PrOF NMR Δδ with BPTF” value (BPTF bromodomain [3]; 400 µM 9, previous screen) was 0.453 ppm. The pKd (BPTF bromodomain [3]; via PrOF NMR) was 3.74, the “BPTF CPMG % decrease” value (BPTF bromodomain [4]) was 100% and the “1H CPMG NMR % Drop in Resonance Intensity BPTF” value (BPTF bromodomain [4]; for 9 from competition experiments (footnote a)) was “++++ ^a (++++ = 80–99.9%)”. For the same compound, the “% drop BPTF” value (BPTF bromodomain [5]; resonance of 9 at 2.6884 ppm) was 46% and the “% drop BPTF” value (BPTF bromodomain [5]; resonance of 9 at 6.98 ppm) was 68%.
